Data set [1] in a line: Pharmacokinetics of 5-MeO-DMT and bufotenine after inhalation. Type of data set: in vivo, human.
Data set [2] relates to Salmonella typhimurium TA98, TA100, TA1535 and TA1537. As to the kind of experiment: Bacterial mutation test, Salmonella typhimurium. The settings on record: up to 5000 μg/plate, with and without S-9. Type of data set: cell-based. The text has this: These conditions included treatments at concentrations up to […] (the maximum recommended concentration according to current regulatory guidelines), in the absence and in the presence of a rat liver metabolic activation system (S-9).

Data set [3] in a line: LC-MS/MS of 5-MeO-DMT, bufotenine and 5-MIAA in breastmilk, serum and urine of a treated PPD patient; infant dose estimates. The settings on record: for Breastmilk concentration / Serum concentration / Urine concentration: second PPD patient, LC-MS/MS.
Where [4] appears, read: 5 kg infant, three feeds of 250 ml.
[5] abbreviates: 8.5 hrs after last dose, inhaled 5-MeO-DMT.
The mark [6] stands for this setting: 24.0 hrs after last dose, inhaled 5-MeO-DMT.
Setting [7] is: 120.0 hrs after last dose, inhaled 5-MeO-DMT.
Where [8] appears, read: timepoint −24.0 hrs (pre-dosing), inhaled 5-MeO-DMT 6 mg then 12 mg.

Consider `COc1ccc2[nH]cc(CCN(C)C)c2c1` [5-MeO-DMT], for which the Detectability in plasma result in data set [1] (3 hours after inhalation, 6-18 mg) was “no longer detectable”. Besides, in data set [1] (repeat within 1 to 4 hours), the “Accumulation upon repeated administration” value is “No accumulation”. In addition, in data set [2], the Induction of mutation result is “did not induce mutation”. Also, in data set [3] (setting [4]), the “DID per kg infant weight” value is given as 0.0001385 mg/kg/day. Moreover, the “Total exposure of the infant (DID)” value in data set [3] (setting [4]) is listed as 0.0006924 mg/day. In addition, in data set [3] (after 24 hours), the “Detection in breastmilk” value is “did not detect any 5-MeO-DMT”. Further, the “Serum concentration at timepoints after 1 hour” value in data set [3] (all subsequent timepoints) was “below the lower limit of quantification”. Further, the Breastmilk concentration is 2167.0 pg/mL in data set [3] (1.0 hrs after last dose, inhaled 5-MeO-DMT); 560.6 pg/mL in data set [3] (2.5 hrs after last dose, inhaled 5-MeO-DMT); 42.1 pg/mL in data set [3] (setting [5]); “BLG” in data set [3] (setting [6]); “BLQ” in data set [3] (setting [7]); “BLQ” in data set [3] (setting [8]). Further, in data set [3] (female, human, serum, inhaled), the concentration at 1 h is 133 µg/mL. Besides, the Serum concentration was 0.0001329 µg/mL in data set [3] (serum, 1.0 hrs after last dose, inhaled 5-MeO-DMT); “BLQ” in data set [3] (serum, 2.5 hrs after last dose, inhaled 5-MeO-DMT); “BLQ” in data set [3] (serum, 24.0 hrs after last dose, inhaled 5-MeO-DMT); “BLQ” in data set [3] (serum, 120.0 hrs after last dose, inhaled 5-MeO-DMT); “BLQ” in data set [3] (serum, timepoint −24.0 hrs (pre-dosing), inhaled 5-MeO-DMT 6 mg then 12 mg). Moreover, the Urine concentration entry in data set [3] (setting [5]), in data set [3] (setting [6]), in data set [3] (setting [7]) and in data set [3] (setting [8]) was “BLQ” throughout.
